Data taken from US20100099629A1, “OPHTHALMOLOGICAL COMPOSITION” (Nihon Tenganyaku Kenkyusho Co., LTD., priority 2002, published 2010).
Marks after values point to notes of the source that are not given here.

Key:
[1] = test system: rabbit corneal wound model; assay: Corneal wound healing promotion action 1 (in vivo), wound of approximately 6 mm; conditions: 5 μM eye drop, 30 μl instillation
Experimental: Using a male Japanese white rabbit, a wound of approximately 6 mm in diameter was produced in the cornea by inducing corneal epithelial abrasion in accordance with the method of Cintron et al. (Ophthalmic Res., 11, pp. 90-96 (1979)). The wound area was measured using the fluorescein-stained area as an index. The effects of the test compound on corneal wound healing were examined.
The eye drops containing the respective concentrations of the test compound were instilled (30 μl at a time) at 0, 3, 6, 9, 12, 18, 24, 27, 30, 33, 36, 42, and 48 hours after inducing corneal epithelial abrasion. In measuring the wound area, fluorescein staining was carried out and a photograph of the cornea was measured. The fluorescein-stained area of the photographed cornea was computed using an image analysis processing system.
In Tables 1 and 2, the respective values indicate the mean value±standard deviation (n=6). Statistical analysis was carried out using Dunnett's multiple comparison with respect to PBS with the area of the corneal wound portion immediately after (0 hours after) corneal epithelial abrasion being set to 100% (*p<0.05, **p<0.01; vs. control).

[2] = test system: rabbit corneal wound model; assay: Corneal wound healing promotion action 2 (in vivo), wound of approximately 8 mm; conditions: 0.3% eye drop, 25 μl instillation
Experimental: Using the same method as (2) above, corneal epithelial abrasion was induced in a Japanese white rabbit to produce a wound of approximately 8 mm in diameter in the cornea. The wound area was measured using the fluorescein-stained area as an index to examine the effects on corneal wound healing.
The eye drops containing the respective concentrations of the test compound were instilled (25 μl at a time) at 0, 6, 12, 18, 24, 30, 36, 42, 48, and 54 hours after induction corneal epithelial abrasion. In measuring the wound area, fluorescein staining was carried out and a photograph of the cornea was measured. The fluorescein-stained area of the photographed cornea was computed using an image analysis processing system.
In Tables 3 and 4, the respective values indicate the mean value±standard deviation (n=6). Statistical analysis was carried out using Dunnett's multiple comparison with respect to physiological saline with the area of the corneal wound portion immediately after (0 hours after) corneal epithelial abrasion being set to 100% (*p<0.05, **p<0.01; vs. control).

Substance | Healing ratio (%) ([1]; 0 hr (baseline)) | Healing ratio (%) ([1]; 6 hr) | Healing ratio (%) ([1]; 12 hr) | Healing ratio (%) ([1]; 24 hr) | Healing ratio (%) ([1]; 36 hr) | Healing ratio (%) ([1]; 48 hr) | Healing ratio (%) ([2]; 0 hr (baseline)) | Healing ratio (%) ([2]; 12 hr) | Healing ratio (%) ([2]; 18 hr) | Healing ratio (%) ([2]; 24 hr) | Healing ratio (%) ([2]; 30 hr)
EGF: polypeptide with a molecular weight of 6000, mitosis-promoting growth factor for corneal epithelium | 0 | 14.49 ± 3.42** % | 31.63 ± 1.29** % | 70.78 ± 6.91** % | 96.41 ± 3.97* % | 99.58 ± 1.03 |  |  |  |  | 
hyaluronic acid |  |  |  |  |  |  | 0 | 13.98 ± 4.88* % | 28.45 ± 3.37* % | 60.78 ± 8.07** % | 60.78 ± 8.07* %
